Test system: normal human dermal fibroblasts
Test: Measurement in vitro of the production of hyaluronic acid (STAINS ALL, 630 nm)
Format: cell-based
Conditions: incubation concentration 10 ng/ml; 5 days
Method: Glycosaminoglycans (GAGs) are the major proteoglycans of the dermis and play an essential role in maintaining the integrity of the skin. Hyaluronic acid is a major nonsulphated GAG which plays an essential role in the hydration of the skin by its capacity to fix up to 1000 times its weight as water. The effect of the products on the hyaluronic acid level was evaluated by a technique in vitro.
The hyaluronic acid level is measured in cultures of normal human dermal fibroblasts. The cells are incubated for 5 days in the presence of the products solubilized in the incubation medium. At the end of this incubation, the extracellular media in which the hyaluronic acid is secreted are collected. The hyaluronic acid is stained with a specific stain, STAINS ALL ((1-ethyl-2-[3-(1-ethylnaphtho-[1,2-d]thiazolin-2-ylidene)-2-methylpropenyl]naphtho-[1,2-d]thiazolium bromide, SIGMA), which interacts with it to produce a change in the absorption spectrum between 620 and 660 nm; the measurement is made by spectrophotometry. A hyaluronic acid series is prepared in parallel. […]
Evaluation of the effects: After 5 days of incubation in the presence of the products, the incubation media are collected and incubated in the presence of STAINS ALL. […] The quantification is made by spectrophotometry at 630 nm. […] The results are expressed as extracellular hyaluronic acid relative to the control.

In the case of “EGF: reference in the hyaluronic acid production test, 10 ng/ml”, the “Extracellular hyaluronic acid produced (% relative to the control)” value is reported as 133%.

From patent publication US20040166079A1, “N-Lauroyl amino acid composition for slimming the human body” (priority 2003, published 2004)
